Test results as given in ChEMBL document CHEMBL1770097, “Non-competitive and selective dipeptidyl peptidase IV inhibitors with phenethylphenylphthalimide skeleton derived from thalidomide-related α-glucosidase inhibitors and liver X receptor antagonists” (Bioorg Med Chem Lett, 2011).
Calls of active or inactive are those of the source. The rule behind the calls is not given here.

Target: T1, Dipeptidyl peptidase 4 (Homo sapiens, UniProt P27487)
Experiment: Inhibition of DPP4 at 10 uM assessed as […] release after 1 hr relative to control
Target sequence in this assay (P27487 whole entry, looked up): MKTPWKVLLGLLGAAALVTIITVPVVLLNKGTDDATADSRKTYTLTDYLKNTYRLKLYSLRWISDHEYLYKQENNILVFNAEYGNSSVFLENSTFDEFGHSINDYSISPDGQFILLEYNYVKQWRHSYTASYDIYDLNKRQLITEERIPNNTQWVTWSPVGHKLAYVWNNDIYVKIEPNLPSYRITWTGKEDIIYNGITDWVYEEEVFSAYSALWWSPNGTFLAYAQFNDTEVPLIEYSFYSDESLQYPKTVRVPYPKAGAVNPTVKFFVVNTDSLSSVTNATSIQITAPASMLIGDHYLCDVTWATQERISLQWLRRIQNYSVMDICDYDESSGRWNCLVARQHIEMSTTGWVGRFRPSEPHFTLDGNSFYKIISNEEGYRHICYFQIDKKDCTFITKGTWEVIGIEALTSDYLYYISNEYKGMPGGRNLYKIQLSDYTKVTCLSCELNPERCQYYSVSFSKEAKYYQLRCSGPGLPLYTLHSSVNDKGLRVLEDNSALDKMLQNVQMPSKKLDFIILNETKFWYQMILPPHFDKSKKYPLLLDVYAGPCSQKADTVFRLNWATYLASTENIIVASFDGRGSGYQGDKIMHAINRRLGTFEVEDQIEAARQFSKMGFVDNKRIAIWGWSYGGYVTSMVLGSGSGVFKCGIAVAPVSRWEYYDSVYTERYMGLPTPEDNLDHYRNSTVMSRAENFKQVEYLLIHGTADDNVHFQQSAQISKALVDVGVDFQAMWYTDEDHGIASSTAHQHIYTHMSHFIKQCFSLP

| SMILES | inhibition [%] |
| --- | --- |
| O=C1c2c(Cl)c(Cl)c(Cl)c(Cl)c2C(=O)N1c1ccccc1CCc1ccccc1 | 7 |
| O=C1c2c(Cl)c(Cl)c(Cl)c(Cl)c2C(=O)N1c1cccc(CCc2c(F)c(F)c(F)c(F)c2F)c1 | 19 |
| O=C1c2c(Cl)c(Cl)c(Cl)c(Cl)c2C(=O)N1c1cccc(CCc2ccccc2)c1 | 26 |
| COc1ccc(CCc2ccccc2N2C(=O)c3ccccc3C2=O)cc1OC | 0 |
| O=C1c2ccccc2C(=O)N1c1cccc(CCc2ccc(O)c(O)c2)c1 | 7 |
| COc1ccc(CCc2ccccc2N2C(=O)c3c(Cl)c(Cl)c(Cl)c(Cl)c3C2=O)cc1OC | 2 |
| O=C1c2c(Cl)c(Cl)c(Cl)c(Cl)c2C(=O)N1c1ccc(CCc2ccc(O)c(O)c2)cc1 | 11 |
| O=C1c2ccccc2C(=O)N1c1cccc(CCc2ccccc2)c1 | 2 |
| O=C1c2c(Cl)c(Cl)c(Cl)c(Cl)c2C(=O)N1c1cccc(CCc2ccccc2C(F)(F)F)c1 | 86 |
| O=C1c2c(Cl)c(Cl)c(Cl)c(Cl)c2C(=O)N1c1cccc(CCc2ccc(O)c(O)c2)c1 | 5 |
| O=C1c2c(Cl)c(Cl)c(Cl)c(Cl)c2C(=O)N1c1ccccc1CCc1ccc(O)c(O)c1 | 12 |
| O=C1c2ccccc2C(=O)N1c1ccc(CCc2ccc(O)c(O)c2)cc1 | 7 |
| O=C1c2c(Cl)c(Cl)c(Cl)c(Cl)c2C(=O)N1c1ccc(CCc2ccccc2)cc1 | 12 |
| COc1ccc(CCc2ccc(N3C(=O)c4c(Cl)c(Cl)c(Cl)c(Cl)c4C3=O)cc2)cc1OC | 3 |
| O=C1c2ccccc2C(=O)N1c1ccccc1CCc1ccc(O)c(O)c1 | 4 |

Second part, the compound after the results:

| inhibition [%] | SMILES |
| --- | --- |
| 0 | COc1ccc(CCc2ccc(N3C(=O)c4ccccc4C3=O)cc2)cc1OC |
| 0 | COc1ccc(CCc2cccc(N3C(=O)c4ccccc4C3=O)c2)cc1OC |
| 87 | O=C1c2c(Cl)c(Cl)c(Cl)c(Cl)c2C(=O)N1c1cccc(CCc2cccc(C(F)(F)F)c2)c1 |
| 6 | O=C1c2ccccc2C(=O)N1c1ccc(CCc2ccccc2)cc1 |
| 0 | COc1ccc(CCc2cccc(N3C(=O)c4c(Cl)c(Cl)c(Cl)c(Cl)c4C3=O)c2)cc1OC |
| 0 | O=C1c2ccccc2C(=O)N1c1ccccc1CCc1ccccc1 |
| 38 | O=C1c2c(Cl)c(Cl)c(Cl)c(Cl)c2C(=O)N1c1cccc(CCc2ccc(C(F)(F)F)cc2)c1 |
| 20 | O=C1c2c(Cl)c(Cl)c(Cl)c(Cl)c2C(=O)N1c1cccc(CCc2ccc(F)cc2)c1 |
| 25 | Cc1ccc(CCc2cccc(N3C(=O)c4c(Cl)c(Cl)c(Cl)c(Cl)c4C3=O)c2)cc1 |

Target: T1, Dipeptidyl peptidase 4
Experiment: Inhibition of DPP4 assessed as […] release after 1 hr

| IC50 [µM] | inhibition | SMILES |
| --- | --- | --- |
| 3.1 | Active | O=C1c2c(Cl)c(Cl)c(Cl)c(Cl)c2C(=O)N1c1cccc(CCc2cccc(C(F)(F)F)c2)c1 |
| 4 | Active | O=C1c2c(Cl)c(Cl)c(Cl)c(Cl)c2C(=O)N1c1cccc(CCc2ccccc2C(F)(F)F)c1 |

System: not listed separately
Experiment: Selectivity ratio of IC50 for DPP4 over IC50 for DPP8

| Ratio IC50 | SMILES |
| --- | --- |
| 10 | O=C1c2c(Cl)c(Cl)c(Cl)c(Cl)c2C(=O)N1c1cccc(CCc2cccc(C(F)(F)F)c2)c1 |

Target: Dipeptidyl peptidase 8 (Homo sapiens, UniProt Q6V1X1)
Sequence (Q6V1X1 whole entry): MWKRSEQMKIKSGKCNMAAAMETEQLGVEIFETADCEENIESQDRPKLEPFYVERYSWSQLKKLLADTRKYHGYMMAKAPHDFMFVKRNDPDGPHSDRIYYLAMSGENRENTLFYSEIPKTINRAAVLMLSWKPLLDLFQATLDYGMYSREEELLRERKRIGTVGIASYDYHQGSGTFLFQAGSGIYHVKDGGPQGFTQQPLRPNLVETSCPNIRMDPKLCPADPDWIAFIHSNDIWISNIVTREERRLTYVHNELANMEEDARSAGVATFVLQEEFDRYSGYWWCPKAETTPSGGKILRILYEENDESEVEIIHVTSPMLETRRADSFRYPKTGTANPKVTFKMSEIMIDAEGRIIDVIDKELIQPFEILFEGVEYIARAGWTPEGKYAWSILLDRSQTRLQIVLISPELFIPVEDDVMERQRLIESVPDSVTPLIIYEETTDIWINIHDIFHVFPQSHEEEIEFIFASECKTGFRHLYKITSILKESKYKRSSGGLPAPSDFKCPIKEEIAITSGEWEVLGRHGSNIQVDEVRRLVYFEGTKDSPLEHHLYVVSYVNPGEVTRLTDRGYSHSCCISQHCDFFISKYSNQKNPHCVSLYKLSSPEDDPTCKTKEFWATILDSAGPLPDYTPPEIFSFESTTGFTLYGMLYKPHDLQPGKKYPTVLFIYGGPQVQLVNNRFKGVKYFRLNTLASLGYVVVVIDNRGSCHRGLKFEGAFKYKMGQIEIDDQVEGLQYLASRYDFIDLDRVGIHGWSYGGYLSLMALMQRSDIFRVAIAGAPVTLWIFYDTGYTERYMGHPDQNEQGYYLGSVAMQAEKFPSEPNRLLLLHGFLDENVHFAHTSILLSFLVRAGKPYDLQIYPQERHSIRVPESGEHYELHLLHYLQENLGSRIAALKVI
Experiment: Inhibition of DPP8 assessed as […] release after 1 hr

| IC50 [µM] | SMILES |
| --- | --- |
| > 30 | O=C1c2c(Cl)c(Cl)c(Cl)c(Cl)c2C(=O)N1c1cccc(CCc2cccc(C(F)(F)F)c2)c1 |
